Results taken from patent US7939532B2, “Heterocyclyl pyridyl sulfonamide derivatives, their manufacture and use as pharmaceutical agents” (Hoffmann-La Roche Inc., priority 2006, dated 2011).
Structures can show the parent of a compound that is named as a salt.

Test system: HCT 116 cells (human colon carcinoma, ATCC-No. CCl-247)
Assay: CellTiter-Glo Luminescent Cell Viability Assay in HCT 116 cells
Assay type: cell-based
Conditions: HCT 116 cell viability, CellTiter-Glo (ATP luminescence), 5 days (120 h) incubation, 10 concentrations 30 μM to 0.0015 μM, triplicate
Source text: CellTiter-Glo™ Assay in HCT 116 Cells
The CellTiter-Glo™ Luminescent Cell Viability Assay (Promega) is a homogeneous method of determining the number of viable cells in culture based on quantitation of the ATP present, which signals the presence of metabolically active cells.
HCT 116 cells (human colon carcinoma, ATCC-No. CCl-247) were cultivated in RPMI 1640 medium with GlutaMAX™ I (Invitrogen, Cat-No. 61870-010), 5% Fetal Calf Serum (FCS, Sigma Cat-No. F4135 (FBS)); 100 Units/ml penicillin/100 μg/ml streptomycin (=Pen/Strep from Invitrogen Cat. No. 15140). For the assay the cells were seeded in 384 well plates, 1000 cells per well, in the same medium. The next day the test compounds were added in various concentrations ranging from 30 μM to 0.0015 μM (10 concentrations, 1:3 diluted). After 5 days the CellTiter-Glo™ assay was done according to the instructions of the manufacturer (CellTiter-Glo™ Luminescent Cell Viability Assay, from Promega). In brief the cell-plate was equilibrated to room temperature for approximately 30 minutes and than the CellTiter-Glo™ reagent was added. The contents were carefully mixed for 15 minutes to induce cell lysis. After 45 minutes the luminescent signal was measured in Victor 2, (scanning multiwell spectrophotometer, Wallac).
• Medium: RPMI 1640 with GlutaMAX™ I (Invitrogen, Cat-Nr. 61870), 5% FCS (Sigma Cat.-No. F4135), Pen/Strep (Invitrogen, Cat No. 15140). • HCT116 (ATCC-No. CCl-247): 1000 cells in 60 μl per well of 384 well plate (Greiner 781098, μClear-plate white) • After seeding incubate plates 24 h at 37° C., 5% CO2 2nd. Day: Induction (Treatment with Compounds, 10 Concentrations):
In order to achieve a final concentration of 30 μM as highest concentration 3.5 μl of 10 mM compound stock solution were added directly to 163 μl media. Then step e) of the dilution procedure described below, was followed.

IC50 | SMILES
1 to 10 µM | O=C(NS(=O)(=O)c1ccc(N2CCN(c3ccccc3)CC2)nc1)c1ccc(F)cc1Cl [Example 1-10, 6-(4-Phenyl-piperazin-1-yl)-pyridine-3-sulfonic acid 2-chloro-4-fluoro-benzoylamide]
1 to 10 µM | O=C(NS(=O)(=O)c1ccc(N2CCN(c3ccc(F)cc3)CC2)nc1)c1ccc(F)cc1C(F)(F)F [Example 1-7, 6-[4-(4-Fluoro-phenyl)-piperazin-1-yl]-pyridine-3-sulfonic acid 4-fluoro-2-trifluoromethyl-benzoylamide; ammonium salt]
1 to 10 µM | O=C(NS(=O)(=O)c1ccc(N2CCN(c3ccccn3)CC2)nc1)c1ccc(F)cc1Cl [Example 1-5, 6-(4-Pyridin-2-yl-piperazin-1-yl)-pyridine-3-sulfonic acid 2-chloro-4-fluoro-benzoylamide; ammonium salt]
1 to 10 µM | COc1ccccc1N1CCN(c2ccc(S(=O)(=O)NC(=O)c3ccc(Cl)cc3C(F)(F)F)cn2)CC1 [Example 1-13, 6-[4-(2-Methoxy-phenyl)-piperazin-1-yl]-pyridine-3-sulfonic acid 4-chloro-2-trifluoromethyl-benzoylamide]
1 to 10 µM | O=C(NS(=O)(=O)c1ccc(N2CCN(c3ccc(F)cc3)CC2)nc1)c1ccc(Cl)cc1Cl [Example 1-16, 6-[4-(4-Fluoro-phenyl)-piperazin-1-yl]-pyridine-3-sulfonic acid 2,4-dichloro-benzoylamide; sodium salt]
1 to 10 µM | O=C(NS(=O)(=O)c1ccc(N2CCN(c3ccccc3F)CC2)nc1)c1ccc(F)cc1C(F)(F)F [Example 1-19, 6-[4-(2-Fluoro-phenyl)-piperazin-1-yl]-pyridine-3-sulfonic acid 4-fluoro-2-trifluoromethyl-benzoylamide; sodium salt]
1 to 10 µM | O=C(NS(=O)(=O)c1ccc(N2CCN(c3ccccc3)CC2)nc1)c1ccc(F)cc1C(F)(F)F [Example 1-18, 6-(4-Phenyl-piperazin-1-yl)-pyridine-3-sulfonic acid 4-fluoro-2-trifluoromethyl-benzoylamide; sodium salt]
1 to 10 µM | Cc1cccc(N2CCN(c3ccc(S(=O)(=O)NC(=O)c4ccc(F)cc4C(F)(F)F)cn3)CC2)c1 [Example 1-3, 6-(4-m-Tolyl-piperazin-1-yl)-pyridine-3-sulfonic acid 4-fluoro-2-trifluoromethyl-benzoylamide; sodium salt]
1 to 10 µM | COc1cc(Cl)ccc1C(=O)NS(=O)(=O)c1ccc(N2CCN(c3ccccc3OC)CC2)nc1 [Example 1-8, 6-[4-(2-Methoxy-phenyl)-piperazin-1-yl]-pyridine-3-sulfonic acid 4-chloro-2-methoxy-benzoylamide; ammonium salt]

Second part, the compound before the results:

SMILES | IC50
COc1ccccc1N1CCN(c2ccc(S(=O)(=O)NC(=O)c3ccc(F)cc3Cl)cn2)CC1 [Example 1-14, 6-[4-(2-Methoxy-phenyl)-piperazin-1-yl]-pyridine-3-sulfonic acid 2-chloro-4-fluoro-benzoylamide; sodium salt] | 1 to 10 µM
O=C(NS(=O)(=O)c1ccc(N2CCC3(CC2)OCCCO3)nc1)c1ccc(Cl)cc1C(F)(F)F [Example 1-2, 6-(1,5-Dioxa-9-aza-spiro[5.5]undec-9-yl)-pyridine-3-sulfonic acid 4-chloro-2-trifluoromethyl-benzoylamide; ammonium salt] | 4.28 µM
O=C(NS(=O)(=O)c1ccc(N2CCN(c3ccccn3)CC2)nc1)c1ccc(F)cc1C(F)(F)F [Example 1-6, 6-(4-Pyridin-2-yl-piperazin-1-yl)-pyridine-3-sulfonic acid 4-fluoro-2-trifluoromethyl-benzoylamide; ammonium salt] | 1 to 10 µM
COc1cc(Cl)ccc1C(=O)NS(=O)(=O)c1ccc(N2CCN(c3ccc(F)cc3)CC2)nc1 [Example 1-11, 6-[4-(4-Fluoro-phenyl)-piperazin-1-yl]-pyridine-3-sulfonic acid 4-chloro-2-methoxy-benzoylamide] | 1.25 µM
O=C(NS(=O)(=O)c1ccc(N2CCN(c3ccccn3)CC2)nc1)c1ccc(Cl)cc1Cl [Example 1-1, 6-(4-Pyridin-2-yl-piperazin-1-yl)-pyridine-3-sulfonic acid 2,4-dichloro-benzoylamide; ammonium salt] | 3.35 µM
COc1ccc(N2CCN(c3ccc(S(=O)(=O)NC(=O)c4ccc(Cl)cc4C(F)(F)F)cn3)CC2)cc1 [Example 1-9, 6-[4-(4-Methoxy-phenyl)-piperazin-1-yl]-pyridine-3-sulfonic acid 4-chloro-2-trifluoromethyl-benzoylamide] | 1 to 10 µM
O=C(NS(=O)(=O)c1ccc(N2CCN(c3ccc(F)cc3)CC2)nc1)c1ccc(F)cc1Cl [Example 1-17, 6-[4-(4-Fluoro-phenyl)-piperazin-1-yl]-pyridine-3-sulfonic acid 2-chloro-4-fluoro-benzoylamide; sodium salt] | 1 to 10 µM
COc1cc(Cl)ccc1C(=O)NS(=O)(=O)c1ccc(N2CCN(c3ccccc3)CC2)nc1 [Example 1-4, 6-(4-Phenyl-piperazin-1-yl)-pyridine-3-sulfonic acid 4-chloro-2-methoxy-benzoylamide] | 1 to 10 µM
COc1cc(Cl)ccc1C(=O)NS(=O)(=O)c1ccc(N2CCC3(CC2)OCCCO3)nc1 [Example 1-12, 6-(1,5-Dioxa-9-aza-spiro[5.5]undec-9-yl)-pyridine-3-sulfonic acid 4-chloro-2-methoxy-benzoylamide] | 1 to 10 µM
O=C(NS(=O)(=O)c1ccc(N2CCN(c3ccc(F)cc3F)CC2)nc1)c1ccc(F)cc1C(F)(F)F [Example 1-20, 6-[4-(2,4-Difluoro-phenyl)-piperazin-1-yl]-pyridine-3-sulfonic acid 4-fluoro-2-trifluoromethyl-benzoylamide; sodium salt] | 1 to 10 µM
O=C(NS(=O)(=O)c1ccc(N2CCN(c3ccccc3)CC2)nc1)c1ccc(Cl)cc1Cl [Example 1-15, 6-(4-Phenyl-piperazin-1-yl)-pyridine-3-sulfonic acid 2,4-dichloro-benzoylamide; sodium salt] | 1 to 10 µM
